# Assay results published in US12540112B2, “Crystal form I of curcumin derivative, preparation method therefor and application thereof” (WENZHOU MEDICAL UNIVERSITY, priority 2019, dated 2026).
# Values joined by “and” are separate entries in the source; they are usually repeats but may differ in a detail not shown here. Equal entries are not always repeated. “Also recorded” adds a separate entry of the source.
# What was measured:
# Format in all cases: physicochemical
# [1] = Fluidity test: angle of repose measurement
# Method: (1) Angle of Repose Measurement
# An iron stand configured to measure the angle of repose is placed in a horizontal position, a funnel is fixed on the iron stand, and a plastic receiving container is placed directly under the funnel. The crystal form I is added to the funnel to make the material flow down slowly from the funnel to form a cone shape. The height of the bottom of the funnel and the top of the flowed-down material is maintained at a height of about 2-4 cm. The measurement is repeated 5 times to calculate the average value.
# [2] = Fluidity test: bulk density and tap density determination
# Method: (2) Bulk Density and Tap Density Determination
# The crystal form I is added to a measuring cylinder, and the weight and volume of the material added are calculated. A densitometer is used to tap and record the volume of the material after tapping.
# [3] = Moisture absorption determination according to the Pharmacopoeia
# Method: In this embodiment, the moisture absorption of crystal form I is investigated according to the Pharmacopoeia, and the details are as follows: • (1) 2 dry glass weighing bottles with stoppers (outer diameter of 50 mm, height of 30 mm) are taken and placed in a desiccator where a saturated solution of ammonium chloride is placed in a lower part. The weighing bottles are placed with open lips, the lid of the desiccator is closed, and the desiccator is placed in a constant temperature room at 25° C. and left overnight. • (2) after left overnight, the weighing bottles are taken out and accurately weighted, results of which are m1 1 and m1 2 respectively. • (3) an appropriate amount of the API sample is taken and laid flat in a weighed weighing bottle (the thickness of the sample is about 1 mm), and accurately weighted, results of which are m2 1 and m2 2 respectively. • (4) the weighing bottles are placed with open lips and placed with the bottle caps in the desiccator with the saturated solution of ammonium chloride in the lower part, the lid of the desiccator is closed, and the desiccator is placed in a thermostat at 25° C. for 24 hours. • (5) after leaving for 24 hours, the weighing bottles are capped and accurately weighted, results of which are m3 1 and m3 2 respectively. • (6) the calculation formula for moisture absorption weight gain is as follows: Weight gain percentage=100%×(m3−m2)/(m2−m1)
# [4] = Two-week solid-state stability determination (XRPD and HPLC); conditions: 2 weeks; for Purity after storage: HPLC, initial purity 99.72%; for Stability of crystalline shape: XRPD
# Excerpt: […] Samples are taken after 2 weeks to test the stability of the samples by XRPD and HPLC.
structure (smiles),measurement,setting,value
O=C1/C(=C/c2ccccc2C(F)(F)F)CCC/C1=C\c1ccccc1C(F)(F)F [crystal form I],"angle of repose, Average value",[1]; average of 5 repeated measurements,41.80 °
same,fluidity,[1]; judgement in words,good fluidity; also recorded: acceptable
same,angle of repose,"[1]; single measurements 1 to 5, funnel method",41.30° and 40.86° and 42.93° and 41.87° and 42.02°
same,Carr index,[2]; (tap density − bulk density)/tap density × 100,21.60
same,ρ (bulk density),"[2]; M 29.85 g, V 44.0 mL",0.678 g/mL
same,ρ-tapped (tap density),"[2]; M 29.85 g, V-tapped 34.5 mL",0.865 g/mL
same,fluidity (from Carr index),[2]; judgement in words,good fluidity
same,"Weight gain percentage, Average value","[3]; 25° C., saturated ammonium chloride solution desiccator, 24 hours, average of 2",0.16%
same,Weight gain percentage (moisture absorption),"[3]; 25° C., saturated ammonium chloride solution desiccator, 24 hours, listed as C66-HC-006-13-06",0.17% and 0.15%
same,moisture absorption,[3]; judgement in words,no or almost no moisture absorption
same,Purity after storage,[4]; 25° C./60% RH/60% RH,99.70%
same,Stability of crystalline shape,[4]; 25° C./60% RH/60% RH,YES
same,Purity after storage,[4]; 25° C./92.5% RH,99.72%
same,Stability of crystalline shape,[4]; 25° C./92.5% RH,YES
same,Purity after storage,[4]; 40° C./75% RH,99.70%
same,Stability of crystalline shape,[4]; 40° C./75% RH,YES
same,Purity after storage,[4]; 60° C./75% RH,99.68%
same,Stability of crystalline shape,[4]; 60° C./75% RH,YES
same,change of purity on storage,[4]; all storage conditions,does not change significantly
same,stability of crystal form,[4]; all storage conditions,remains stable
